# Patent US20260373138A1, “COMPOUNDS WITH ANTIFUNGAL PROPERTIES” (priority 2023, published 2026)
# Tested on: A. fumigatus CEA10 reference strain
# Experiment: Fluconazole potentiator screen: MIC by CLSI microbroth dilution with and without fluconazole
# Format: cell-based, Aspergillus fumigatus
# Conditions: for MIC: Aspergillus fumigatus, read-out: MIC (ug/mL) (−) Fluc; for MIC / MIC (ug/mL) (+) Fluc: 18 h; for MIC (ug/mL) (+) Fluc: with 32 μg/ml fluconazole, normoxia, GMM, 37 °C; for potency / potentiation of fluconazole (in words): structure-activity statements, fluconazole potentiator screen
Compound,MIC,MIC (ug/mL) (+) Fluc,potency / potentiation of fluconazole (in words),loss in potency compared to MBX-7591 (relative to MBX-7591)
O=C(c1ccccc1)N1CCC(Cc2ccc(COc3ccncc3)cc2)CC1 [MBX-7704],> 15 µg/mL,>15 µg/mL,,
O=C(c1ccc(Cl)cc1)N1CCC(Cc2ccc(COc3ccncc3)cc2)CC1 [MBX-7705],1.49 µg/mL,1.05 µg/mL,low potentiation effect,
O=C(c1ccc(F)cc1)N1CCC(Cc2ccc(COc3ccncc3)cc2)CC1 [MBX-7706],1.01 µg/mL,8.09 µg/mL,antagonistic effect,
Cc1ccc(C(=O)N2CCC(Cc3ccc(COc4ccncc4)cc3)CC2)cc1 [MBX-7707],1.18 µg/mL,0.59 µg/mL,comparable activity to MBX-7591,
COc1ccc(C(=O)N2CCC(Cc3ccc(COc4ccncc4)cc3)CC2)cc1 [MBX-7728],8.3 µg/mL,8.30 µg/mL,,
O=C(c1ccccn1)N1CCC(Cc2ccc(COc3ccncc3)cc2)CC1 [MBX-7729],15 µg/mL,15.00 µg/mL,did not result in appreciable increase in potency,
O=C(c1cccnc1)N1CCC(Cc2ccc(COc3ccncc3)cc2)CC1 [MBX-7730],15 µg/mL,7.70 µg/mL,did not result in appreciable increase in potency,
O=C(c1ccncc1)N1CCC(Cc2ccc(COc3ccncc3)cc2)CC1 [MBX-7731],7.7 µg/mL,7.70 µg/mL,did not result in appreciable increase in potency,
O=C(c1ccoc1)N1CCC(Cc2ccc(COc3ccncc3)cc2)CC1 [MBX-7732],5.32 µg/mL,1.88 µg/mL,,4 fold
O=C(c1ccccc1F)N1CCC(Cc2ccc(COc3ccncc3)cc2)CC1 [MBX-7769],11.4 µg/mL,8.09 µg/mL,,
O=C(c1cccc(F)c1)N1CCC(Cc2ccc(COc3ccncc3)cc2)CC1 [MBX-7770],8.09 µg/mL,8.09 µg/mL,,
COc1cccc(C(=O)N2CCC(Cc3ccc(COc4ccncc4)cc3)CC2)c1 [MBX-7771],11.8 µg/mL,16.70 µg/mL,,
O=C(c1ccc2c(c1)OCCO2)N1CCC(Cc2ccc(COc3ccncc3)cc2)CC1 [MBX-7772],12.6 µg/mL,12.60 µg/mL,,
Cn1ccc(C(=O)N2CCC(Cc3ccc(COc4ccncc4)cc3)CC2)c1 [MBX-7773],7.79 µg/mL,15.60 µg/mL,antagonistic potentiation effect with the fluconazole,
O=C(c1cccc(O)c1)N1CCC(Cc2ccc(COc3ccncc3)cc2)CC1 [MBX-7801],> 16 µg/mL,>16 µg/mL,,
O=C(c1ccc(O)cc1)N1CCC(Cc2ccc(COc3ccncc3)cc2)CC1 [MBX-7802],> 16 µg/mL,>16 µg/mL,,
O=C(c1cccc(F)c1O)N1CCC(Cc2ccc(COc3ccncc3)cc2)CC1 [MBX-7803],> 16 µg/mL,>16 µg/mL,,
O=C(c1c[nH]cn1)N1CCC(Cc2ccc(COc3ccncc3)cc2)CC1 [MBX-7804],> 15 µg/mL,>15 µg/mL,not tolerated,
O=C(Nc1ccsc1)N1CCC(Cc2ccc(COc3ccncc3)cc2)CC1 [MBX-7805],> 16 µg/mL,>16 µg/mL,,
c1cc(OCc2ccc(CC3CCN(Cc4ccsc4)CC3)cc2)ccn1 [MBX-7806],> 15 µg/mL,>15 µg/mL,,

Compound,MIC,MIC (ug/mL) (+) Fluc,potency / potentiation of fluconazole (in words),loss in potency compared to MBX-7591 (relative to MBX-7591)
CC(c1ccsc1)N1CCC(Cc2ccc(COc3ccncc3)cc2)CC1 (centres unmarked) [MBX-7821],> 15 µg/mL,>15 µg/mL,,
O=S(=O)(c1ccsc1)N1CCC(Cc2ccc(COc3ccncc3)cc2)CC1 [MBX-7822],> 6 µg/mL,1.07 µg/mL,"the only linker reasonably tolerated, apart from the amide",
O=S(=O)(c1ccccc1)N1CCC2(CC1)CC(CCOc1ccncc1)CCO2 (centres unmarked) [MBX-7868],8.33 µg/mL,2.08 µg/mL,,
O=S(=O)(c1ccccc1F)N1CCC2(CC1)CC(CCOc1ccncc1)CCO2 (centres unmarked) [MBX-7869],> 17 µg/mL,3.07 µg/mL,,
Cc1cccc(S(=O)(=O)N2CCC3(CC2)CC(CCOc2ccncc2)CCO3)c1 (centres unmarked) [MBX-7870],> 17 µg/mL,6.09 µg/mL,,
O=S(=O)(c1ccc(F)cc1)N1CCC2(CC1)CC(CCOc1ccncc1)CCO2 (centres unmarked) [MBX-7871],8.69 µg/mL,1.09 µg/mL,,
O=S(=O)(c1cccc(Cl)c1)N1CCC2(CC1)CC(CCOc1ccncc1)CCO2 (centres unmarked) [MBX-7872],> 18 µg/mL,6.38 µg/mL,,
O=S(=O)(c1ccccn1)N1CCC2(CC1)CC(CCOc1ccncc1)CCO2 (centres unmarked) [MBX-7873],> 16 µg/mL,>16 µg/mL,,
O=S(=O)(c1cccnc1)N1CCC2(CC1)CC(CCOc1ccncc1)CCO2 (centres unmarked) [MBX-7874],> 16 µg/mL,>16 µg/mL,,
O=S(=O)(c1ccoc1)N1CCC2(CC1)CC(CCOc1ccncc1)CCO2 (centres unmarked) [MBX-7875],> 16 µg/mL,8.00 µg/mL,,
O=S(=O)(c1ccsc1)N1CCC2(CC1)CC(CCOc1ccncc1)CCO2 (centres unmarked) [MBX-7876],> 12 µg/mL,2.99 µg/mL,,
O=S(=O)(c1ccc(Cl)cc1)N1CCC2(CC1)CC(CCOc1ccncc1)CCO2 (centres unmarked) [MBX-7877],3.19 µg/mL,0.80 µg/mL,,
N#Cc1cccc(S(=O)(=O)N2CCC3(CC2)CC(CCOc2ccncc2)CCO3)c1 (centres unmarked) [MBX-7910],> 88 µg/mL,22.00 µg/mL,,
O=S(=O)(C1CC1)N1CCC2(CC1)CC(CCOc1ccncc1)CCO2 (centres unmarked) [MBX-7911],76.1 µg/mL,38.10 µg/mL,complete loss of activity,
O=S(=O)(c1ccc(Cl)s1)N1CCC2(CC1)CC(CCOc1ccncc1)CCO2 (centres unmarked) [MBX-7912],0.36 µg/mL,0.18 µg/mL,the most potent,
O=S(=O)(c1ccc(C(F)(F)F)nc1)N1CCC2(CC1)CC(CCOc1ccncc1)CCO2 (centres unmarked) [MBX-7913],2.41 µg/mL,0.96 µg/mL,the most potent,
Cn1nccc1S(=O)(=O)N1CCC2(CC1)CC(CCOc1ccncc1)CCO2 (centres unmarked) [MBX-7914],8.34 µg/mL,3.31 µg/mL,,
O=S(=O)(C1CCC1)N1CCC2(CC1)CC(CCOc1ccncc1)CCO2 (centres unmarked) [MBX-7915],39.5 µg/mL,49.70 µg/mL,complete loss of activity,
O=S(=O)(N1CCOCC1)N1CCC2(CC1)CC(CCOc1ccncc1)CCO2 (centres unmarked) [MBX-7950],26.8 µg/mL,13.40 µg/mL,complete loss of activity,
CN1CCN(S(=O)(=O)N2CCC3(CC2)CC(CCOc2ccncc2)CCO3)CC1 (centres unmarked) [MBX-7951],> 87 µg/mL,>87 µg/mL,complete loss of activity,

Compound,MIC,MIC (ug/mL) (+) Fluc,potency / potentiation of fluconazole (in words),loss in potency compared to MBX-7591 (relative to MBX-7591)
COc1cccc(S(=O)(=O)N2CCC3(CC2)CC(CCOc2ccncc2)CCO3)c1 (centres unmarked) [MBX-7952],11.2 µg/mL,2.79 µg/mL,,
COc1ccc(S(=O)(=O)N2CCC3(CC2)CC(CCOc2ccncc2)CCO3)cc1 (centres unmarked) [MBX-7953],5.58 µg/mL,1.11 µg/mL,,
CC(c1cccs1)N1CCC2(CC1)CC(CCOc1ccncc1)CCO2 (centres unmarked) [MBX-7954],> 77 µg/mL,>77 µg/mL,,
c1csc(CN2CCC3(CC2)CC(CCOc2ccncc2)CCO3)c1 (centres unmarked) [MBX-7955],> 74 µg/mL,>74 µg/mL,,
O=S(=O)(C1COC1)N1CCC2(CC1)CC(CCOc1ccncc1)CCO2 (centres unmarked) [MBX-7956],> 79 µg/mL,>79 µg/mL,complete loss of activity,
COc1c(F)cccc1S(=O)(=O)N1CCC2(CC1)CC(CCOc1ccncc1)CCO2 (centres unmarked) [MBX-7958],> 92 µg/mL,>92 µg/mL,,
O=S(=O)(c1cncs1)N1CCC2(CC1)CC(CCOc1ccncc1)CCO2 (centres unmarked) [MBX-7959],21.2 µg/mL,4.20 µg/mL,,
O=S(=O)(c1cscn1)N1CCC2(CC1)CC(CCOc1ccncc1)CCO2 (centres unmarked) [MBX-7960],42 µg/mL,10.60 µg/mL,,
COc1ccccc1S(=O)(=O)N1CCC2(CC1)CC(CCOc1ccncc1)CCO2 (centres unmarked) [MBX-7961],> 89 µg/mL,>89 µg/mL,,
O=C(O)c1cccc(S(=O)(=O)N2CCC3(CC2)CC(CCOc2ccncc2)CCO3)c1 (centres unmarked) [MBX-7962],> 92 µg/mL,>92 µg/mL,,
O=C(c1ccsc1)N1CCC(Cc2ccc(C#Cc3ccncc3)cc2)CC1 [MBX-7963],> 77 µg/mL,>77 µg/mL,,
O=C(c1ccsc1)N1CCC(Cc2ccc(-c3ccncc3)cc2)CC1 [MBX-7964],2.27 µg/mL,1.13 µg/mL,maintained potency,
O=C(c1ccsc1)N1CCC(Cc2ccc(OCc3ccncc3)cc2)CC1 [MBX-8024],19.6 µg/mL,19.60 µg/mL,not optimal for potentiation of fluconazole,
O=C(c1ccsc1)N1CCC(Cc2ccc(Oc3ccncc3)cc2)CC1 [MBX-8025],> 37 µg/mL,>37 µg/mL,not optimal for potentiation of fluconazole,
O=C(c1ccsc1)N1CCC(Cc2ccc(CCc3ccncc3)cc2)CC1 [MBX-8026],2.4 µg/mL,0.80 µg/mL,maintained potency,
N#Cc1ccc(OCc2ccc(CC3CCN(C(=O)c4ccsc4)CC3)cc2)cc1 [MBX-8027],> 83 µg/mL,>83 µg/mL,,
O=C(c1ccsc1)N1CCC(Cc2ccc(CCOc3ccncc3)cc2)CC1 [MBX-8028],0.4 µg/mL,0.60 µg/mL,,
O=C(c1ccsc1)N1CCC(Cc2cccc(COc3ccncc3)c2)CC1 [MBX-8029],27 µg/mL,19.00 µg/mL,,
